According to the NIST ThermoML archive (doi:10.1021/acs.jced.6b00655):
“And” between values parts separate entries of the source, which are not always exact repeats. Identical values can stand only once. ± gives the expanded uncertainty stated by the source.

Settings: 343.15 K; 100 kPa; Liquid; Vibrating tube method

With CCCC[N+](C)(CCCC)CCCC.O=S(=O)([N-]S(=O)(=O)C(F)(F)F)C(F)(F)F [tributylmethylammonium bis((trifluoromethyl)sulfonyl)imide] the mass density was 1224.15 ± 10 kg/m3 and 1224.18 ± 10 kg/m3.
